Source: patent publication US11214565B2, “Compound, compositions, and methods” (Denali Therapeutics Inc., priority 2015, dated 2022)

biological target: LRRK2 G2019S enzyme (Homo sapiens (Human), UniProt Q5S007, G2019S); assay: LRRK2 G2019S TR-FRET biochemical kinase assay (LRRKtide substrate); conditions: Table A-2; 5 nM LRRK2, 134 μM ATP, 60 minute reaction, 23° C.
Protocol: LRRK2 G2019S enzyme, Substrate (LRRKtide), ATP, TR-FRET dilution buffer, pLRRKtide antibody, 384-well assay plate, and DMSO.
50 mM Tris pH 7.5, 10 mM MgCl2, 1 mM EGTA, 0.01% Brij-35, 2 mM DTT, 5 nM LRRK2, 134 μM ATP, 60 minute reaction time, 23° C. reaction temperature, and 10 μL total reaction volume.
1×TR-FRET dilution buffer, 10 mM EDTA, 2 nM antibody, 23° C. reaction temperature, and 10 μL total reaction volume.
Compound solutions were prepared by initially diluting to 1 mM with DMSO. 35 μL of reference compound solution, 35 μL of test compound solution, and 35 μL HPE were successively added to the source plate (384-well assay plate, Labcyte). The plates were centrifuged at 2500 rpm for 1 minute and sealed in foil. POD was used to perform a 3.162 fold serial dilution and 100 nL of reference compound solution, test compound solution, HPE and ZPE were transferred to assay plates. The assay plate was centrifuged at 2500 rpm for 1 minute, and sealed with foil.
To perform the enzyme reaction, 5 μL of LRRKtide substrate and kinase mixture in assay buffer was added to all wells of the assay plate. The plate was centrifuged to concentrate the mixture at the bottom of the wells. The assay plate was incubated at 23° C. for 20 minutes. Following incubation, 5 μL of 2×ATP in assay buffer was added to each well, and plates were centrifuged to concentrate the mixture at the bottom of the wells. The plate was incubated at 23° C. for 60 minutes.
To perform the detection of the reaction, EDTA completely mixed in TR-FRET dilution buffer was added to antibody reagent. 10 μL of detection reagent was added to all wells of each well of the assay-plate and the plate was centrifuged to concentrate the mixture at the bottom of the wells. The plate was then incubated at 23° C. for 60 minutes. Plates were read on Perkin Elmer Envision 2104 instrument in TR-FRET mode using a 340 nm excitation filter, 520 nm fluorescence emission filter, and 490 or 495 nm terbium emission filter.
B-2, C2, and D-4 respectively.

Sequence of LRRK2 G2019S enzyme (Q5S007 whole entry G2019S): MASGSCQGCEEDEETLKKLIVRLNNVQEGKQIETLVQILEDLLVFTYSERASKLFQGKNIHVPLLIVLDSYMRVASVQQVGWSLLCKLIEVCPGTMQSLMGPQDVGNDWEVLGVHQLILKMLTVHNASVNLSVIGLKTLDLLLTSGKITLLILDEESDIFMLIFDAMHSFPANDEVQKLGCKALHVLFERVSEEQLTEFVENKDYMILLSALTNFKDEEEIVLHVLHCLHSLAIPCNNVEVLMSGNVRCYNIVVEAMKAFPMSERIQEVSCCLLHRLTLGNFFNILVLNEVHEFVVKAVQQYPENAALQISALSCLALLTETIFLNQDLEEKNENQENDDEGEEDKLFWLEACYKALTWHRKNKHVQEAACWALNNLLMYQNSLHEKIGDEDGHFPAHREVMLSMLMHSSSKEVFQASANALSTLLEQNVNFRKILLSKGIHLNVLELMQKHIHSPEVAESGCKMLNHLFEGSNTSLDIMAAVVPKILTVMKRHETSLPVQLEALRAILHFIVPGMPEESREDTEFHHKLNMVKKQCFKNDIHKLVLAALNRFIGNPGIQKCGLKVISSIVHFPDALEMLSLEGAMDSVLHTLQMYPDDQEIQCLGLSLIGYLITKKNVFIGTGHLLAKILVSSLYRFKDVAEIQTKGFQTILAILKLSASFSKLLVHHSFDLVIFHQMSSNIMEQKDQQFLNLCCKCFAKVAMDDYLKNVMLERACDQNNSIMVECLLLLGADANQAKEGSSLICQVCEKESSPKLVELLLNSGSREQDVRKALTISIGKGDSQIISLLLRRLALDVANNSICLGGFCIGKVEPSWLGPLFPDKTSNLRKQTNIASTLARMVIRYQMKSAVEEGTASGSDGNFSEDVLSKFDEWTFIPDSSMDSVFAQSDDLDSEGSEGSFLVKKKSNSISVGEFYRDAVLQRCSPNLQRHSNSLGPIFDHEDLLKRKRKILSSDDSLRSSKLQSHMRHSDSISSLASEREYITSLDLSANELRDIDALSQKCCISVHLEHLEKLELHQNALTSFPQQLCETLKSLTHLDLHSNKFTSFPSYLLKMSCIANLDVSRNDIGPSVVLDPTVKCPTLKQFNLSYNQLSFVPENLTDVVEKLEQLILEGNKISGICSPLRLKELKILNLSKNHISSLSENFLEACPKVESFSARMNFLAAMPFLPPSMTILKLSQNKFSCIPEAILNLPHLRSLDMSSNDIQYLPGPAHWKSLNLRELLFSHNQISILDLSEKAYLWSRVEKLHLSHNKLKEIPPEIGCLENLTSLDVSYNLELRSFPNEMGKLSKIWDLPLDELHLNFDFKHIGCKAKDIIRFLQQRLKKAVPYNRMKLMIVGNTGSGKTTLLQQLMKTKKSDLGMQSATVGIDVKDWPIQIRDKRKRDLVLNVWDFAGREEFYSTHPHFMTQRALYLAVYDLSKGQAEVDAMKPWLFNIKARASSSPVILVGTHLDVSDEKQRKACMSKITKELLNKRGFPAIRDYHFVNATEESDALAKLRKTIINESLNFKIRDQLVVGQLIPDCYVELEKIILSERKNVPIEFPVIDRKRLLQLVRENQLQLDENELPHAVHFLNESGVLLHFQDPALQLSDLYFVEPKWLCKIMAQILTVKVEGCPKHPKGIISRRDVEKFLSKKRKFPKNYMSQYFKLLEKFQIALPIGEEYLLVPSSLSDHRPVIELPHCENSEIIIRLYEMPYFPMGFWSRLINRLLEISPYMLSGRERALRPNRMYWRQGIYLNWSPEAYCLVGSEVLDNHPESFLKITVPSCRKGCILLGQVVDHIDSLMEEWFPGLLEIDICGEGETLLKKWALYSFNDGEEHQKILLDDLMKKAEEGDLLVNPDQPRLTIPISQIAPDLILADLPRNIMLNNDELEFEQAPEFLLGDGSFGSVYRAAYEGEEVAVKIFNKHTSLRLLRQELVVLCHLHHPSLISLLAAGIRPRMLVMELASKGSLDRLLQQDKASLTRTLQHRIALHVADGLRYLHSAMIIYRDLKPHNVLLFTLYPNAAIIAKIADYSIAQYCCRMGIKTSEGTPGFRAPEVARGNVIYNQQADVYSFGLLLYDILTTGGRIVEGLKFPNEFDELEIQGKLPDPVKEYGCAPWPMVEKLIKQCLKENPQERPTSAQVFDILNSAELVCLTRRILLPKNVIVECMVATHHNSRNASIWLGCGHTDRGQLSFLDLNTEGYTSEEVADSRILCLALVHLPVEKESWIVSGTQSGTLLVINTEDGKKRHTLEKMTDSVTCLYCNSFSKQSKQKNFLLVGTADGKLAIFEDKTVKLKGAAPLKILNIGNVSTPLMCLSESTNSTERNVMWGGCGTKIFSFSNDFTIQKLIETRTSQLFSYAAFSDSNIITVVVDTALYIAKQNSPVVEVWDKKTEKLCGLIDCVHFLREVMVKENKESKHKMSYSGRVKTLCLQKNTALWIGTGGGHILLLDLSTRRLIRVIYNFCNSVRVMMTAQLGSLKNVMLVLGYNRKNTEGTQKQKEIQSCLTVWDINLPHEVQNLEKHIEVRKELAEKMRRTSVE

IC50 [nM] | SMILES
< 30 | Cc1nn(C2(c3ncn(C)n3)CCC2)cc1Nc1ncc(C(F)(F)F)c(C2CC2)n1 [Compound A-41, 4-cyclopropyl-N-[3-methyl-1-[1-(1-methyl-1,2,4-triazol-3-yl)cyclobutyl]pyrazol-4-yl]-5-(trifluoromethyl)pyrimidin-2-amine]
> 60 | Cc1nn(C2(c3ncnn3C)CCC2)cc1Nc1ncc(C(F)(F)F)c(C2CC2)n1 [Compound A-42, 4-cyclopropyl-N-[3-methyl-1-[1-(2-methyl-1,2,4-triazol-3-yl)cyclobutyl]pyrazol-4-yl]-5-(trifluoromethyl)pyrimidin-2-amine]
< 30 | Cc1c(Nc2ncc(Cl)c(C3CC3)n2)cnn1C(CF)CF [Compound A-43, 5-chloro-4-cyclopropyl-N-[1-[2-fluoro-1-(fluoromethyl)ethyl]-5-methyl-pyrazol-4-yl]pyrimidin-2-amine]
< 30 | Cc1nn(C(CF)CF)cc1Nc1ncc(Cl)c(C2CC2)n1 [Compound A-44, 5-chloro-4-cyclopropyl-N-[1-[2-fluoro-1-(fluoromethyl)ethyl]-3-methyl-pyrazol-4-yl]pyrimidin-2-amine]
< 30 | FCC(CF)n1ncc(Nc2ncc(C(F)(F)F)c(C3CC3)n2)c1Cl [Compound A-45, N-[5-chloro-1-[2-fluoro-1-(fluoromethyl)ethyl]pyrazol-4-yl]-4-cyclopropyl-5-(trifluoromethyl)pyrimidin-2-amine]
< 30 | FCC(CF)n1cc(Nc2ncc(C(F)(F)F)c(C3CC3)n2)c(Cl)n1 [Compound A-46, N-[3-chloro-1-[2-fluoro-1-(fluoromethyl)ethyl]pyrazol-4-yl]-4-cyclopropyl-5-(trifluoromethyl)pyrimidin-2-amine]
< 30 | Cc1nn(C2(C#N)CC2)cc1Nc1ncc(C(F)(F)F)c(C2CC2)n1 [Compound A-47, 1-[4-[[4-cyclopropyl-5-(trifluoromethyl)pyrimidin-2-yl]amino]-3-methyl-pyrazol-1-yl]cyclopropanecarbonitrile]
< 30 | F[C@H]1CN(C2COC2)CC[C@@H]1n1ncc(Nc2ncc(C(F)(F)F)c(C3CC3)n2)c1Cl [Compound A-48, N-(5-chloro-1-((3S,4S)-3-fluoro-1-(oxetan-3-yl)piperidin-4-yl)-1H-pyrazol-4-yl)-4-cyclopropyl-5-(trifluoromethyl)pyrimidin-2-amine]
< 30 | CCn1cnc(C(C)(C)n2cc(Nc3ncc(C(F)(F)F)c(C4CC4)n3)c(C)n2)n1 [Compound A-51, 4-cyclopropyl-N-(1-(2-(1-ethyl-1H-1,2,4-triazol-3-yl)propan-2-yl)-3-methyl-1H-pyrazol-4-yl)-5-(trifluoromethyl)pyrimidin-2-amine]
> 60 | Cc1nn(C2(c3ncn(C)n3)CC2)cc1Nc1ncc(C(F)(F)F)c(C2CC2)n1 [Compound A-52, 4-cyclopropyl-N-[3-methyl-1-[1-(1-methyl-1,2,4-triazol-3-yl)cyclopropyl]pyrazol-4-yl]-5-(trifluoromethyl)pyrimidin-2-amine]
< 30 | Cc1nn(C(C)(C)c2ncn(C)n2)cc1Nc1ncc(Br)c(C2CC2)n1 [Compound A-53, 5-bromo-4-cyclopropyl-N-(3-methyl-1-(2-(1-methyl-1H-1,2,4-triazol-3-yl)propan-2-yl)-1H-pyrazol-4-yl)pyrimidin-2-amine]
< 30 | Cc1c(Nc2ncc(C(F)(F)F)c(C3CC3)n2)cnn1Cc1ccn(C)n1 [Compound A-54, 4-cyclopropyl-N-[5-methyl-1-[(1-methylpyrazol-3-yl)methyl]pyrazol-4-yl]-5-(trifluoromethyl)pyrimidin-2-amine]
< 30 | Cc1nn(Cc2ccn(C)n2)cc1Nc1ncc(C(F)(F)F)c(C2CC2)n1 [Compound A-55, 4-cyclopropyl-N-(3-methyl-1-((1-methyl-1H-pyrazol-3-yl)methyl)-1H-pyrazol-4-yl)-5-(trifluoromethyl)pyrimidin-2-amine]
< 30 | Cc1nn(C(C)(C)c2cn(C)cn2)cc1Nc1ncc(C(F)(F)F)c(C2CC2)n1 [Compound A-56, 4-cyclopropyl-N-(3-methyl-1-(2-(1-methyl-1H-imidazol-4-yl)propan-2-yl)-1H-pyrazol-4-yl)-5-(trifluoromethyl)pyrimidin-2-amine]
> 60 | CC(C)(O)Cn1ncc(Nc2ncc(C(F)(F)F)c(C3CC3)n2)c1Cl [Compound A-57, 1-[5-chloro-4-[[4-cyclopropyl-5-(trifluoromethyl)pyrimidin-2-yl]amino]pyrazol-1-yl]-2-methyl-propan-2-ol]
< 30 | Cc1nn(C(C)(C)c2nc[nH]n2)cc1Nc1ncc(C(F)(F)F)c(C2CC2)n1 [Compound A-58, N-(1-(2-(1H-1,2,4-triazol-3-yl)propan-2-yl)-3-methyl-1H-pyrazol-4-yl)-4-cyclopropyl-5-(trifluoromethyl)pyrimidin-2-amine]
30 to 60 | FC(F)(F)c1cnc(Nc2cnn(CC3(CN4CCOCC4)CC3)c2Cl)nc1C1CC1 [Compound A-63, N-[5-chloro-1-[[1-(morpholinomethyl)cyclopropyl]methyl]pyrazol-4-yl]-4-cyclopropyl-5-(trifluoromethyl)pyrimidin-2-amine]
> 60 | Cn1cnc(C(C)(C)n2cc(Nc3ncc(C(F)(F)F)c(C4CC4)n3)c(CO)n2)n1 [Compound A-66]
< 30 | Cc1nn(C(C)(C)c2ccn[nH]2)cc1Nc1ncc(C(F)(F)F)c(C2CC2)n1 [Compound A-67, 4-cyclopropyl-N-[3-methyl-1-[1-methyl-1-(1H-pyrazol-5-yl)ethyl]pyrazol-4-yl]-5-(trifluoromethyl)pyrimidin-2-amine]
< 30 | Cc1c(Nc2ncc(C(F)(F)F)c(C3CC3)n2)cnn1[C@H]1CC2C(C1)[C@H]2c1ncnn1C (stereo partly drawn) [Compound A-68, 4-cyclopropyl-N-(5-methyl-1-((1R,3s,5S,6r)-6-(1-methyl-1H-1,2,4-triazol-5-yl)bicyclo[3.1.0]hexan-3-yl)-1H-pyrazol-4-yl)-5-(trifluoromethyl)pyrimidin-2-amine]
< 30 | Cc1nn([C@H]2CC3C(C2)[C@H]3c2ncn(C)n2)cc1Nc1ncc(C(F)(F)F)c(C2CC2)n1 (stereo partly drawn) [Compound A-69, 4-cyclopropyl-N-(3-methyl-1-((1R,3r,5S,6r)-6-(1-methyl-1H-1,2,4-triazol-3-yl)bicyclo[3.1.0]hexan-3-yl)-1H-pyrazol-4-yl)-5-(trifluoromethyl)pyrimidin-2-amine]
< 30 | Cc1nn([C@H]2CC3C(C2)[C@H]3c2ncnn2C)cc1Nc1ncc(C(F)(F)F)c(C2CC2)n1 (stereo partly drawn) [Compound A-70, 4-cyclopropyl-N-(3-methyl-1-((1R,3s,5S,6r)-6-(1-methyl-1H-1,2,4-triazol-5-yl)bicyclo[3.1.0]hexan-3-yl)-1H-pyrazol-4-yl)-5-(trifluoromethyl)pyrimidin-2-amine]
< 30 | Cc1nn(C(C)(C)c2cn[nH]n2)cc1Nc1ncc(C(F)(F)F)c(C2CC2)n1 [Compound A-71, N-(1-(2-(2H-1,2,3-triazol-4-yl)propan-2-yl)-3-methyl-1H-pyrazol-4-yl)-4-cyclopropyl-5-(trifluoromethyl)pyrimidin-2-amine]
30 to 60 | Cc1nnc(C(C)(C)n2cc(Nc3ncc(C(F)(F)F)c(C4CC4)n3)c(C)n2)o1 [Compound A-74, 4-cyclopropyl-N-(3-methyl-1-(2-(5-methyl-1,3,4-oxadiazol-2-yl)propan-2-yl)-1H-pyrazol-4-yl)-5-(trifluoromethyl)pyrimidin-2-amine]
< 30 | Cc1nn(C(F)(F)c2ncn(C)n2)cc1Nc1ncc(C(F)(F)F)c(C2CC2)n1 [Compound A-75, 4-cyclopropyl-N-[1-[difluoro(1-methyl-1H-1,2,4-triazol-3-yl)methyl]-3-methyl-pyrazol-4-yl]-5-(trifluoromethyl)pyrimidin-2-amine]
> 60 | Cc1nn(C(F)(F)c2ncnn2C)cc1Nc1ncc(C(F)(F)F)c(C2CC2)n1 [Compound A-76, 4-cyclopropyl-N-[1-[difluoro-(2-methyl-1,2,4-triazol-3-yl)methyl]-3-methyl-pyrazol-4-yl]-5-(trifluoromethyl)pyrimidin-2-amine]
< 30 | Cc1nn(C(F)(F)c2nc[nH]n2)cc1Nc1ncc(C(F)(F)F)c(C2CC2)n1 [Compound A-77, 4-cyclopropyl-N-(1-(difluoro(1H-1,2,4-triazol-3-yl)methyl)-3-methyl-1H-pyrazol-4-yl)-5-(trifluoromethyl)pyrimidin-2-amine]
< 30 | Cc1c(Nc2ncc(C(F)(F)F)c(C3CC3)n2)cnn1[C@H]1C[C@H](c2ncnn2C)C1 [Compound A-80, 4-cyclopropyl-N-(5-methyl-1-((1r,3r)-3-(1-methyl-1H-1,2,4-triazol-5-yl)cyclobutyl)-1H-pyrazol-4-yl)-5-(trifluoromethyl)pyrimidin-2-amine]
